In US20260184669A1, “LIPID COMPOUND AND COMPOSITION FOR DELIVERY OF ACTIVE SUBSTANCE” (KOREA RESEARCH INSTIUTE OF BIOSCIENCE AND BIOTECHNOLOGY, priority 2022, published 2026):

Assay: mRNA encapsulation efficiency (Quant-IT RiboGreen RNA assay)
Format: physicochemical
Details: mRNA encapsulation efficiency of mRNA-LNP made with the ionizable lipid; average of two measurements
In short: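 LNP samples read with RiboGreen reagent in TE buffer with or without 2% Triton X-100 (37 °C, 10 min) to release encapsulated mRNA. Fluorescence at λex 480/λem 520 nm; EE % calculated from the two readings, averaged over two independent measurements.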

Compound: CCCCC/C=C\C/C=C\CCCCCCCCC(CCCCCCCC/C=C\C/C=C\CCCCC)OC(=O)CCCN(C)C [MC3, DLin-MC3-DMA, reference compound]
- EE (%): 95%
